This passage reports IC50 results from patent US10301280B2 (Plexxikon Inc., priority 2012, dated 2019).

Each structure is given as a SMILES string.

In one assay the target is c-kit mutant D816V (Homo sapiens (Human), UniProt P10721, D816V/DEL694-753). Nature of the assay: c-Kit mutant D816V biochemical assay (AlphaScreen). Conditions: c-kit D816V biochemical inhibitory activity. In a few lines:
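His-tagged c-Kit D816V kinase domain (551-934, Δ694-753, E. coli) phosphorylating 30 nM biotin-(E4Y)10 at 10 μM ATP in HEPES pH 7.2 with Mg/Mn, 5% DMSO, 30 min at room temperature. PY20-acceptor/streptavidin-donor AlphaScreen detection after EDTA stop. IC50 from 8-point 1:3 titration.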
For orientation: In Alpha technology, singlet oxygen from a donor bead excites a nearby acceptor bead.

Assay [1] has as its system BaF3-FL KIT D816V or BaF3-FL KIT V560G/D816V cell line. Briefly: Cell-based assays of c-Kit mutant kinase activity (cell growth, ATPlite). Conditions: at least one of the c-kit cell assays of Example 26. Summed up:
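BaF3 cells dependent on full-length human KIT (D816V or V560G/D816V) seeded at 1×10^4 cells/well in RPMI with 10% FBS. Eight-point 1:3 dilutions from 10 μM top final (0.2% DMSO), 3 days at 37° C., 5% CO2. ATPlite luminescence gave IC50.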
(In general: Cellular ATP, detected with luciferase, serves as a proxy for viable cell number.)

Sequence of c-kit mutant D816V (P10721 other isoform, or with tags, fused parts or gaps D816V/del 694-753): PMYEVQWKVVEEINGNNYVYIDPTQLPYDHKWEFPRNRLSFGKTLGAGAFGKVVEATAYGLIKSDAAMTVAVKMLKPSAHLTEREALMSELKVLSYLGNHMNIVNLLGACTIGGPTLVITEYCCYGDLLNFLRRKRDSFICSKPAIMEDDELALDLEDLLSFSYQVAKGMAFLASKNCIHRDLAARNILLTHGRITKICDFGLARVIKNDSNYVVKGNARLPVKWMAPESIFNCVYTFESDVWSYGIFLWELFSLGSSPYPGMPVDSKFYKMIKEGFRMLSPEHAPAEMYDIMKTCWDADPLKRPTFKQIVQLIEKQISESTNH

For orientation: IC50 means the concentration that inhibits the measured activity by half. As for `Cc1n[nH]c(C(=O)Nc2cnc3[nH]c(-c4ccc(F)cc4)cc3c2)c1Cl` [P-2023, 4-chloro-N-[2-(4-fluorophenyl)-1H-pyrrolo[2,3-b]pyridin-5-yl]-3-methyl-1H-pyrazole-5-carboxamide], the 50% inhibitory concentration (IC50) at c-kit mutant D816V is 0.0001 to 1 µM; in assay [1], under 10 µM.

Turning to `Cc1n[nH]c(C(=O)Nc2cnc(Nc3cccc(NS(=O)(=O)c4ccccc4)c3)nc2)c1C` [P-2053, N-[2-[3-(benzenesulfonamido)anilino]pyrimidin-5-yl]-3,4-dimethyl-1H-pyrazole-5-carboxamide], the IC50 was 0.0001 to 1 µM against c-kit mutant D816V and under 10 µM in assay [1].

Consider `Cc1n[nH]c(C(=O)Nc2cnc3[nH]c(-c4ccc(C(=O)O)c(F)c4)cc3c2)c1C` [P-2292, 4-[5-[(3,4-dimethyl-1H-pyrazole-5-carbonyl)amino]-1H-pyrrolo[2,3-b]pyridin-2-yl]-2-fluoro-benzoic acid], for which the IC50 against c-kit mutant D816V is 0.0001 to 1 µM; in assay [1], under 10 µM.

Turning to `O=C(Nc1cnc2[nH]c(-c3ccccc3)cc2c1)c1ncccc1F` [P-2012, 3-fluoro-N-(2-phenyl-1H-pyrrolo[2,3-b]pyridin-5-yl)pyridine-2-carboxamide], the IC50 against c-kit mutant D816V was 1 to 10 µM; in assay [1], under 10 µM.

As for `Cc1c[nH]nc1C(=O)Nc1cnc2[nH]c(-c3ccc(F)cc3)cc2c1` [P-2029, N-[2-(4-fluorophenyl)-1H-pyrrolo[2,3-b]pyridin-5-yl]-4-methyl-1H-pyrazole-3-carboxamide], the IC50 was 0.0001 to 1 µM against c-kit mutant D816V and under 10 µM in assay [1].

As for `Cc1n[nH]c(C(=O)Nc2cnc3c(c2)cc(C2=CCN(C(=O)N4CCOCC4)CC2)n3S(=O)(=O)c2ccccc2)c1C` [P-2033, N-[1-(benzenesulfonyl)-2-[1-(morpholine-4-carbonyl)-3,6-dihydro-2H-pyridin-4-yl]pyrrolo[2,3-b]pyridin-5-yl]-3,4-dimethyl-1H-pyrazole-5-carboxamide], the half-maximal inhibitory concentration (IC50) on c-kit mutant D816V was 0.0001 to 1 µM; in assay [1], under 10 µM.

For `Cc1[nH]nc(C(=O)Nc2cnc3[nH]c(C4=CCN(C(=O)C5CC5)CC4)cc3c2)c1Cl` [P-2039, 4-chloro-N-[2-[1-(cyclopropanecarbonyl)-3,6-dihydro-2H-pyridin-4-yl]-1H-pyrrolo[2,3-b]pyridin-5-yl]-5-methyl-1H-pyrazole-3-carboxamide], the IC50 on c-kit mutant D816V was 0.0001 to 1 µM; in assay [1] it was under 10 µM.

Regarding `Cc1nn(C)cc1-c1cc2cc(NC(=O)c3[nH]nc(C)c3C)cnc2[nH]1` [P-2038, N-[2-(1,3-dimethylpyrazol-4-yl)-1H-pyrrolo[2,3-b]pyridin-5-yl]-4,5-dimethyl-1H-pyrazole-3-carboxamide], the half-inhibitory concentration (IC50) on c-kit mutant D816V is 0.0001 to 1 µM; in assay [1], under 10 µM.

Regarding `Cc1cc(C(=O)Nc2cnc3[nH]c(N4CCOCC4)cc3c2)[nH]n1` [P-2058, 3-methyl-N-(2-morpholino-1H-pyrrolo[2,3-b]pyridin-5-yl)-1H-pyrazole-5-carboxamide], the figures for the concentration for half-maximal inhibition (IC50) (against c-kit mutant D816V; in assay [1]) were 0.0001 to 1 µM and under 10 µM, respectively.

With `Cc1n[nH]c(C(=O)Nc2cnc3[nH]c(-c4ccc(CC(=O)O)cc4)cc3c2)c1C` [P-2295, 2-[4-[5-[(3,4-dimethyl-1H-pyrazole-5-carbonyl)amino]-1H-pyrrolo[2,3-b]pyridin-2-yl]phenyl]acetic acid], the results for the IC50 (at c-kit mutant D816V; in assay [1]) were 0.0001 to 1 µM and under 10 µM, respectively.

As for `Cc1n[nH]c(C(=O)Nc2cnc3[nH]c(-c4ccnc(N5CCN(S(C)(=O)=O)CC5)c4)cc3c2)c1C` [P-2186, 3,4-dimethyl-N-[2-[2-(4-methylsulfonylpiperazin-1-yl)-4-pyridyl]-1H-pyrrolo[2,3-b]pyridin-5-yl]-1H-pyrazole-5-carboxamide], the IC50 against c-kit mutant D816V is 0.0001 to 1 µM; in assay [1], under 10 µM.

As to `Cc1[nH]nc(C(=O)Nc2cnc3[nH]c(C4=CCN(C(=O)C5CC5)CC4)cc3c2)c1C` [P-2043, N-[2-[1-(cyclopropanecarbonyl)-3,6-dihydro-2H-pyridin-4-yl]-1H-pyrrolo[2,3-b]pyridin-5-yl]-4,5-dimethyl-1H-pyrazole-3-carboxamide], the values for the IC50 (at c-kit mutant D816V; in assay [1]) were 0.0001 to 1 µM and under 10 µM, respectively.

As to `Cc1nn(C2COC2)cc1-c1cc2cc(NC(=O)c3[nH]nc(C)c3C)cnc2[nH]1` [P-2168, 3,4-dimethyl-N-[2-[3-methyl-1-(oxetan-3-yl)pyrazol-4-yl]-1H-pyrrolo[2,3-b]pyridin-5-yl]-1H-pyrazole-5-carboxamide], the figures for the IC50 (on c-kit mutant D816V; in assay [1]) were 0.0001 to 1 µM and under 10 µM, respectively.

Regarding `Cc1nn(C2CN(C(=O)OC(C)(C)C)C2)cc1-c1cc2cc(NC(=O)c3[nH]nc(C)c3C)cnc2[nH]1` [P-2285, tert-butyl 3-[4-[5-[(3,4-dimethyl-1H-pyrazole-5-carbonyl)amino]-1H-pyrrolo[2,3-b]pyridin-2-yl]-3-methyl-pyrazol-1-yl]azetidine-1-carboxylate], the IC50 was 0.0001 to 1 µM on c-kit mutant D816V and under 10 µM in assay [1].

For the compound `Cc1n[nH]c(C(=O)Nc2cnc3[nH]c(-c4cnn(C5CCNCC5)c4)cc3c2)c1C` [P-2048, 3,4-dimethyl-N-[2-[1-(4-piperidyl)pyrazol-4-yl]-1H-pyrrolo[2,3-b]pyridin-5-yl]-1H-pyrazole-5-carboxamide], the 50% inhibitory concentration (IC50) was 0.0001 to 1 µM on c-kit mutant D816V and under 10 µM in assay [1].

As to `Cc1n[nH]c(C(=O)Nc2cnc3[nH]c(-c4ccc(F)cc4OC(F)F)cc3c2)c1C` [P-2268, N-[2-[2-(difluoromethoxy)-4-fluoro-phenyl]-1H-pyrrolo[2,3-b]pyridin-5-yl]-3,4-dimethyl-1H-pyrazole-5-carboxamide], the IC50 against c-kit mutant D816V was 0.0001 to 1 µM; in assay [1] it was under 10 µM.

Consider `Cc1cc(C(=O)Nc2cnc3[nH]c(C4=CCN(C(=O)N5CCOCC5)CC4)cc3c2)n[nH]1` [P-2031, 5-methyl-N-[2-[1-(morpholine-4-carbonyl)-3,6-dihydro-2H-pyridin-4-yl]-1H-pyrrolo[2,3-b]pyridin-5-yl]-1H-pyrazole-3-carboxamide], for which the half-inhibitory concentration (IC50) is 0.0001 to 1 µM at c-kit mutant D816V and under 10 µM in assay [1].

For the compound `Cc1n[nH]c(C(=O)Nc2cnc3[nH]c(-c4cccc(N5CCNCC5)c4)cc3c2)c1C` [P-2274, 3,4-dimethyl-N-[2-(3-piperazin-1-ylphenyl)-1H-pyrrolo[2,3-b]pyridin-5-yl]-1H-pyrazole-5-carboxamide], the IC50 was 0.0001 to 1 µM on c-kit mutant D816V and under 10 µM in assay [1].

For the compound `Cc1n[nH]c(C(=O)Nc2cnc3[nH]c(C4=CCN(S(C)(=O)=O)CC4)cc3c2)c1Cl` [P-2057, 4-chloro-3-methyl-N-[2-(1-methylsulfonyl-3,6-dihydro-2H-pyridin-4-yl)-1H-pyrrolo[2,3-b]pyridin-5-yl]-1H-pyrazole-5-carboxamide], the IC50 against c-kit mutant D816V was 0.0001 to 1 µM; in assay [1], under 10 µM.

As for `Cc1n[nH]nc1C(=O)Nc1cnc2[nH]c(-c3ccc(F)cc3)cc2c1` [P-2037, N-[2-(4-fluorophenyl)-1H-pyrrolo[2,3-b]pyridin-5-yl]-5-methyl-2H-triazole-4-carboxamide], the half-inhibitory concentration (IC50) against c-kit mutant D816V was 0.0001 to 1 µM; in assay [1], under 10 µM.

Regarding `O=C(O)c1cccc(C(=O)Nc2cnc3[nH]c(-c4ccccc4)cc3c2)c1` [P-2291, 3-[(2-phenyl-1H-pyrrolo[2,3-b]pyridin-5-yl)carbamoyl]benzoic acid], the results for the IC50 (on c-kit mutant D816V; in assay [1]) were 10 to 200 µM and under 10 µM, respectively.

As to `Cc1n[nH]c(C(=O)Nc2cnc3[nH]c(Cl)cc3c2)c1C` [P-2049, N-(2-chloro-1H-pyrrolo[2,3-b]pyridin-5-yl)-3,4-dimethyl-1H-pyrazole-5-carboxamide], the values for the IC50 (at c-kit mutant D816V; in assay [1]) were 0.0001 to 1 µM and under 10 µM, respectively.
